Assay results taken from patent publication US11655216B2 (priority 2016, dated 2023).
Where two headings read alike, the source gives them in different places.

How the values were obtained:
[1] = target: T1, glutathione-S-transferase (GST) tagged LXRbeta LBD (ligand binding domain) (Homo sapiens, UniProt P55055); test: LanthaScreen TR-FRET Liver X Receptor Coactivator Assay, LXR beta; type: biochemical; conditions: for EC50: LXR beta IP, potency (Inflection Point), compound-induced co-activator recruitment, TR-FRET; for Emax: read-out: LXR beta actiivty at max dose, efficacy (% Emax) in relation to reference dual agonist T0901317; for LXR beta actiivty at max dose: efficacy (% Emax) in relation to reference dual agonist T0901317
T1 construct: purchased Invitrogen pv4658
T1 sequence (P55055 222-460 limits assumed): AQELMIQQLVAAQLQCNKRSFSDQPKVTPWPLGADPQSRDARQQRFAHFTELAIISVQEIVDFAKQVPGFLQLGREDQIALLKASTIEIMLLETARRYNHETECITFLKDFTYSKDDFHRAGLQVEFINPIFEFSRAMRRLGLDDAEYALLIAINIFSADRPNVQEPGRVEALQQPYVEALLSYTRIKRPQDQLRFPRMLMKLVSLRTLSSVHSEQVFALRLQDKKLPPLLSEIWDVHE
In short: (§1)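 Coactivator recruitment format: receptor LBD exposed to compounds, detection via Tb-antibody/fluorescein-peptide pair, room-temperature incubation, TR-FRET signal on a filter instrument.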

[2] = target: T2, glutathione-S-transferase (GST) tagged LXRalpha LBD (ligand binding domain) (Homo sapiens, UniProt Q13133); test: biochemical
T2 construct: purchased Invitrogen pv4655
T2 sequence (Q13133 209-447 limits assumed): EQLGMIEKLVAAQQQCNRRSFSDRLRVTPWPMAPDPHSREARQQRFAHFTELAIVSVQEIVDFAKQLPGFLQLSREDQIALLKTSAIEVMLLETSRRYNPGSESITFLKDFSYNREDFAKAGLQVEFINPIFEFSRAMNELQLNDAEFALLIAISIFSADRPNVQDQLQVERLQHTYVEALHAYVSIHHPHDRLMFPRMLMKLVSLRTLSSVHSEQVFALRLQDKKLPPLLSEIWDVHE
In short: as §1

[3] = efficacy (% Emax) in relation to reference dual agonist T0901317, read-out: LXR alpha actiivty at max dose
[4] = potency (Inflection Point), compound-induced co-activator recruitment, TR-FRET, read-out: LXR alpha IP
[5] = LXR alpha IP, potency (Inflection Point), compound-induced co-activator recruitment, TR-FRET
[6] = read-out: LXR alpha actiivty at max dose, efficacy (% Emax) in relation to reference dual agonist T0901317
[7] = efficacy (% Emax) in relation to reference dual agonist T0901317

EC50 [1]	Emax [1]	Emax [2, 3]	EC50 [2, 4]	EC50 [2, 5]	Emax [2, 6]	LXR beta actiivty at max dose [1]	LXR alpha actiivty at max dose [2, 7]	Structure (SMILES)	LXR alpha IP ([2]; potency (Inflection Point), compound-induced co-activator recruitment, TR-FRET)
101 nM	91%	29%	1160 nM	–	–	–	–	C[C@H](CCCC1CCN(C(=O)[C@](O)(c2ccccc2)C(F)(F)F)CC1)Oc1ccc(C(=O)N(C)C)c(Cl)c1 (single isomer, unassigned) [Example 25-1, 2-chloro-N,N-dimethyl-4-((R or S)-5-(1-((R or S)-3,3,3-trifluoro-2-hydroxy-2-phenylpropanoyl)piperidin-4-yl)pentan-2-yloxy)benzamide]	–
98 nM	84%	–	–	1360 nM	12%	–	–	COc1cccc([C@](O)(C(=O)N2CCC(CCCC(C)Oc3ccc(C(=O)N(C)C)c(Cl)c3)CC2)C(F)(F)F)c1 (single isomer, unassigned) [Example 25-2, 2-chloro-N,N-dimethyl-4-((R or S)-5-(1-((S or R)-3,3,3-trifluoro-2-hydroxy-2-(3-methoxyphenyl)propanoyl)piperidin-4-yl)pentan-2-yloxy)benzamide]	–
8 nM	65%	12%	236 nM	–	–	–	–	COc1cccc(C(O)(C(=O)N2CCC(C(C)CCCOc3ccc(C(=O)N(C)C)c(Cl)c3)CC2)C(F)(F)F)c1 (single isomer, unassigned) [Example 26-1, 2-chloro-N,N-dimethyl-4-((R or S)-4-(1-((R or S)-3,3,3-trifluoro-2-hydroxy-2-(3-methoxyphenyl)propanoyl)piperidin-4-yl)pentyloxy)benzamide]	–
6 nM	–	–	–	103 nM	41%	71%	–	CC(CCCOc1ccc(C(=O)N(C)C)c(Cl)c1)C1CCN(C(=O)C(O)(c2ccccc2)C(F)(F)F)CC1 (single isomer, unassigned) [Example 26-2, 2-chloro-N,N-dimethyl-4-((R or S)-4-(1-((R or S)-3,3,3-trifluoro-2-hydroxy-2-phenylpropanoyl)piperidin-4-yl)pentyloxy)benzamide]	–
6 nM	–	–	–	125 nM	–	77%	48%	CC(CCCOc1ccc(C(=O)N(C)C)c(Cl)c1)C1CCN(C(=O)C(O)(c2ccccc2)C(F)(F)F)CC1 (single isomer, unassigned) [Example 26-3, 2-chloro-N,N-dimethyl-4-((S or R)-4-(1-((R or S)-3,3,3-trifluoro-2-hydroxy-2-phenylpropanoyl)piperidin-4-yl)pentyloxy)benzamide]	–
41 nM	–	–	–	669 nM	–	114%	35%	CC(CCCOc1ccc(C(=O)N(C)C)c(Cl)c1)C1CCN(C(=O)C(O)(c2ccccc2)C(F)(F)F)CC1 (single isomer, unassigned) [Example 26-4, 2-chloro-N,N-dimethyl-4-((S or R)-4-(1-((S or R)-3,3,3-trifluoro-2-hydroxy-2-phenylpropanoyl)piperidin-4-yl)pentyloxy)benzamide]	–

Structure (SMILES)	EC50 [1]	Emax [1]	Emax [2, 3]	EC50 [2, 4]	EC50 [2, 5]	Emax [2, 6]	LXR beta actiivty at max dose [1]	LXR alpha actiivty at max dose [2, 7]	LXR alpha IP ([2]; potency (Inflection Point), compound-induced co-activator recruitment, TR-FRET)
COc1cccc([C@@](O)(C(=O)N2CCC(C[C@@H](C)CCOc3ccc(C(=O)N(C)C)c(Cl)c3)CC2)C(F)(F)F)c1 (single isomer, unassigned) [Example 27-1, 2-chloro-N,N-dimethyl-4-((R or S)-3-methyl-4-(1-((R or S)-3,3,3-trifluoro-2-hydroxy-2-(3-methoxyphenyl)propanoyl)piperidin-4-yl)butoxy)benzamide]	5 nM	70%	23%	74 nM	–	–	–	–	–
COc1cccc([C@@](O)(C(=O)N2CCC(CC(C)CC(F)(F)Oc3ccc(C(=O)N(C)C)c(Cl)c3)CC2)C(F)(F)F)c1 (single isomer, unassigned) [Example 28-1, 2-chloro-4-((R or S)-1,1-difluoro-3-methyl-4-(1-((R or S)-3,3,3-trifluoro-2-hydroxy-2-(3-methoxyphenyl)propanoyl)piperidin-4-yl)butoxy)-N,N-dimethylbenzamide]	65 nM	62%	–	–	–	0%	–	–	No IP
